Measurements from publication PMC10650714, “Double Attack to Oxidative Stress in Neurodegenerative Disorders: MAO-B and Nrf2 as Elected Targets” (Molecules, 2023).
Counter-ions that a name gives are not always drawn.

Columns and labels:
recombinant hMAO-B = target: T1, recombinant hMAO-B (Homo sapiens, UniProt P27338); test: hMAO-B activity assay (kynuramine, fluorimetric); type: biochemical; conditions: for SI (selectivity index): calculated as hMAO-A Ki/hMAO-B Ki; for Ki: kynuramine [S] = 10 µM, pH 7.4, 37 °C, mean ± S.D., read-out: hMAO-B Ki
T1 construct: purchased Fluka-Sigma-Aldrich s.r.l; (Italy); host or cells: Baculovirus infected BT1 cells
T1 sequence (P27338 1-520): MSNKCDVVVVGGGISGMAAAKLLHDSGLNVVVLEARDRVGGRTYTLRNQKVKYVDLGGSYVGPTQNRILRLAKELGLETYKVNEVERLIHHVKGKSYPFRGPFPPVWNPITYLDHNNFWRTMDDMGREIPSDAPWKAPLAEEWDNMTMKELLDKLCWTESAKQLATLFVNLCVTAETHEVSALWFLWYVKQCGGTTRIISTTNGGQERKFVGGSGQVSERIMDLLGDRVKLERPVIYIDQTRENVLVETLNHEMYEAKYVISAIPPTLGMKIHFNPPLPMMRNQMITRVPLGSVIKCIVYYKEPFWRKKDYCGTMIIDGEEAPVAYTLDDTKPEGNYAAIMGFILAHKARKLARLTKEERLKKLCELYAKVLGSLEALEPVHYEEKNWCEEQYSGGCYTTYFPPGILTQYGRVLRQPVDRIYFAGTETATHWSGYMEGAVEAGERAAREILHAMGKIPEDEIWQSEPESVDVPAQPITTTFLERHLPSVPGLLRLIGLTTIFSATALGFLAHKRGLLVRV
Protocol: (§1) Human recombinant hMAO-A and hMAO-B expressed in Baculovirus infected BT1 cells (5 mg/mL) and horseradish peroxidases were purchased from Fluka-Sigma-Aldrich s.r.l. (Italy). A Cary Eclipse fluorimeter (Varian Inc., Palo Alto, CA, USA) was used for fluorescence measurements. […] At first, the peroxidase-coupled continuous assay that detect the H2O2 generation rate was considered. It uses the Amplex Red reagent as the fluorogenic substrate for horseradish peroxidase.
(§2) By applying this method, hMAO activity assays were performed in K/Pi 0.1 M, EDTA 1 mM (total volume: 200 μL; pH 7.4, T = 37 °C), in the presence and in absence of various concentrations of the different compounds (0.2–20 μM and 2–50 μM in the case of hMAO–B and hMAO-A, respectively).
(§3) MAOs stock solutions were diluted with assay buffer in the presence or absence of the tested compound to obtain a final concentration of 0.005 mg/mL for MAO-A and 0.010 mg/mL for MAO-B; then, kynuramine (10–300 μM final concentration) was added to the assay solution. After 45–60 min of incubation at 37 °C, the reaction was stopped by the addition of 2 M NaOH (80 μL) and 480 μL of distilled water. Kynuramine deaminated by MAO spontaneously cyclizes to provide 4-hydroxyquinoline, the amount of which was determined by the fluorescence intensity of the peak of its emission spectra (λexc = 330 nm and λem 330–530 nm). Then, the rate of reaction was calculated using a specific calibration curve (in the presence of the same amount of the tested compound) built with the standard 4-hydroxyquinoline.
(§4) Under these experimental conditions, the Michaelis–Menten equation for rate of reaction, can be simplified as follows: V ≈ (Vmax/KM) [E]0[S]0 [49]. In the presence of an inhibitor, one or both the kinetic parameters, KM and Vmax, might be affected by its presence, depending on the inhibition mechanism. In particular, in the presence of a reversible inhibitor, both the kinetic parameters could be affected, and the apparent kinetic parameter would then become: KM I = KM,0 (1 + [I]/Ki)/(1 + [I]/(αKi)), and VmaxI = Vmax0/(1 + [I]/(αKi)), where α is the factor indicating how much the dissociation constant of the enzyme-substrate-I complex is different from that of the enzyme–I complex (also named Ki). Consequently, the ratio of the initial rate of reaction in the absence (Vo) and in the presence (VI) of the tested compound (Vo/VI) can be simplified to the ratio of (Vmax/KM)o/(Vmax/KM)I ≈ (1 + [I]/Ki).
(§5) To study the mechanism of inhibition, the steady-state kinetic parameters (Vmax and Km) of MAO-A and MAO-B were determined by performing experiments at different substrate concentrations and in the absence and presence of different concentrations of the tested compound. Vmax and Km were calculated by fitting the Michaelis–Menten equation to the experimental data (initial rate of reactions vs. substrate concentrations), with Sigma Plot software, version 9.0 (Jandel Scientific, San Rafael, CA, USA).

recombinant hMAO-A = target: T2, recombinant hMAO-A (Homo sapiens, UniProt P21397); test: hMAO-A activity assay (kynuramine, fluorimetric); type: biochemical; conditions: kynuramine [S] = 10 µM, pH 7.4, 37 °C; mean ± S.D.; read-out: hMAO-A Ki
T2 construct: purchased Fluka-Sigma-Aldrich s.r.l; (Italy); host or cells: Baculovirus infected BT1 cells
T2 sequence (P21397 1-527): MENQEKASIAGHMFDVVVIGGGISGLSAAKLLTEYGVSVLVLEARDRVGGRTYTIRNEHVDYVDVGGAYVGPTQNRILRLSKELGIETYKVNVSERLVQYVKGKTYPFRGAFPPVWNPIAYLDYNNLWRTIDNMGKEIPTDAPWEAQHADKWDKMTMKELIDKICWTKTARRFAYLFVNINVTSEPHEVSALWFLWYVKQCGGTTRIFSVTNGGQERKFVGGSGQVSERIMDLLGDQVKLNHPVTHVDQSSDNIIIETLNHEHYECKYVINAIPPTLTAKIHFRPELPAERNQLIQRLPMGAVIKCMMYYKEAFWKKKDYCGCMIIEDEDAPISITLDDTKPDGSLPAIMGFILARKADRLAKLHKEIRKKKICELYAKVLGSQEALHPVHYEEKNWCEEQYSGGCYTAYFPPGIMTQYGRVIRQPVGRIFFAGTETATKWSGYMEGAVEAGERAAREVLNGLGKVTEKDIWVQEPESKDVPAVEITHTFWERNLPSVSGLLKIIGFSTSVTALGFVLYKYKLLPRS
Protocol: as §1, §2, §3, §4, §5

[1] = tested on: Nrf2 nuclear translocation in SH-SY5Y cells; test: Nrf2 nuclear translocation (Western blot of nuclear extracts); type: cell-based, human; conditions: 5 μM, 3 h
Description: In physiological conditions, the repressor Keap1 traps Nrf2 at the cytosolic level, preventing the activation of Nrf2 pathway. The disruption of Keap1–Nrf2 interaction allows for Nrf2 nuclear translocation, thus resulting in the transcriptional activation of its target cytoprotective genes. […] We and others have previously developed several compounds bearing caffeic and ferulic fragments able to activate Nrf2 in terms of the up-regulation of Nrf2 expression, translocation into the nucleus and induction of the Nrf2-dependent defensive genes, with (pro)electrophilic features emerging as key players. Herein, to analyse the effect of the new molecules on the Nrf2 downstream cascade, the ability of compounds 1–5 to increase Nrf2 nuclear translocation was preliminary evaluated as a pivotal step in Nrf2 signalling activation (Figure 6). Based on MAO-B inhibitory potency and cell toxicity assay, compounds were studied in SH-SY5Y human neuroblastoma cells at the concentration of 5 μM. Given the high structural analogy with our derivatives, we selected the well-known Nrf2 inducer CAPE [37, 38] as the reference compound, and verified its ability to induce Nrf2 nuclear translocation at different concentrations, ranging from 5 µM to 50 µM in our experimental model (Figure S6). Nrf2 nuclear content was assessed via Western blot analysis. […] Consistently, data from literature highlight discrepancies about pioglitazone-mediated Nrf2 activation, indicating its ability to activate Nrf2 in longer timeframes and different in vitro and in vivo experimental conditions. […] The preliminary docking performed on human Keap-1 confirms the excellent positioning of compound 2 within the BTB domain pocket, where cysteine 151 is located (see Figure S5). […] Particularly, all these new molecules hold the characteristic (pro)electrophilic fragments, which however, in this case, resulted to be insufficient to activate Nrf2, as reported for other ferulic and caffeic derivatives. In this regard, optimal target interaction might play a major role, but further biological investigations are needed to fully clarify the mechanism of Nrf2 activation and the effect on the downstream expression of cytoprotective genes.
SH-SY5Y cells (5 × 106) were seeded in […] dishes and treated for 3 h with 5 μM compounds; afterward, the medium was removed, and cells were washed twice with ice-cold PBS. Cells were subsequently homogenized 15 times using a glass−glass Dounce homogenizer in 0.32 M sucrose, buffered with 20 mM Tris- HCl (pH 7.4), containing 2 mM EDTA, 0.5 mM EGTA, 50 mM β-mercaptoethanol and 20 μg/mL leupeptin, apotrinin and pepstatin. The homogenate was centrifuged at 300× g for 5 min to obtain the nuclear fraction. An aliquot of the nuclear fraction was used for protein assay via the Bradford method, whereas the remaining was boiled for 5 min after dilution with sample buffer and subjected to polyacrylamide gel electrophoresis and immunoblotting, as described.

[2] = tested on: ROS production in HepG2 cells; test: Intracellular ROS generation rate (DCF-DA); type: cell-based, human; conditions: 5 µM, antimycin A 10 µM, 30 min
Protocol: Thus, on the basis of the hMAO-B inhibitory potency and on the Nrf2 nuclear translocation results, the most promising compounds 2 and 3 were chosen for the evaluation of their antioxidant activity in the human hepatic HepG2 cells, a valuable cellular system to assess antioxidant properties of the compounds [43, 44]. CAPE and pioglitazone were also tested as reference compounds. HepG2 cells were pre-loaded with dichlorofluorescein diacetate (DCF-DA), a fluorescent probe to detect ROS generation. […] Immediately, antimycin A (10 µM), an inhibitor of the complex III of the mitochondrial electron transport chain, was also added as an ROS inducer. The oxidation rate of DCF, that is, the generation rate of ROS, was detected for 30 min, and for each sample, the corresponding control was also run.
HepG2 cells (human hepatocellular carcinoma) were purchased from the American Type Culture Collection (ATCC HB-8065). Cells were grown in MEM (M0894, Merck Life Sciences S.r.l., Milan, Italy) supplemented with 2.2 g/L NaHCO3 (S5761, Merck Life Sciences S.r.l., Milan, Italy), 100 U/mL penicillin, 100 μg/mL streptomycin and 0.25 μg/mL amphotericin B (A5955, Merck Life Sciences S.r.l., Milan, Italy) and 10% foetal calf serum (F7524, Merck Life Sciences S.r.l., Milan, Italy). Cells were cultured at 37 °C in a humidified atmosphere incubator containing 5% carbon dioxide in air.
The intracellular production of ROS was detected via a fluorometric method using 2′,7′-dichlorofluorescein diacetate (D6883, Merck Life Sciences S.r.l., Milan, Italy) as probe. HepG2 cells (6 × 10^3/well) were seeded into a 96-well culture plate in 200 µL of a complete growth medium and incubated for 48 h in standard conditions. The medium was then removed, and cells were washed with 5 mM of PBS–glucose. Then, cells were loaded with 10 μM of 2′,7′-dichlorofluorescein diacetate in 5 mM of PBS–glucose at 37 °C in the dark for 20 min, washed with 5 mM of PBS–glucose, treated with the test compounds at indicated concentrations in 5 mM of PBS–glucose and then analysed. Fluorescence intensity was recorded for 30 min at λemx = 485 nm and λem = 527 nm, using a Victor X3 Multilabel plate reader (Perkin Elmer). The rate of ROS generation was calculated relative to untreated cells (controls) after subtraction of autofluorescence value. Results were presented as the mean values of at least three independent experiments performed with six replicates.

| Structure (SMILES) | SI (selectivity index) (recombinant hMAO-B) | Ki (recombinant hMAO-B) [µM] | Ki (recombinant hMAO-A) [µM] | melting point [°C] | decrease in hMAO-B inhibitory potency in comparison with pioglitazone (recombinant hMAO-B) [times] | Nrf2 nuclear translocation [1] | effect on antimycin A-induced ROS [2] |
| --- | --- | --- | --- | --- | --- | --- | --- |
| COc1cc(/C=C/C(=O)Nc2ccc(CC3SC(=O)NC3=O)cc2)ccc1O (centres unmarked) [Compound 5, (E)-N-(4-((2,4-Dioxothiazolidin-5-yl)methyl)phenyl)-3-(4-hydroxy-3-methoxyphenyl)acrylamide] | 14.2 | 3.3 ± 1 | 47 ± 4 | 151 to 152 |  | promoted Nrf2 translocation at a lower extent |  |
| COc1cc(/C=C/C(=O)Oc2ccc(CC3SC(=O)NC3=O)cc2)ccc1O (centres unmarked) [Compound 3, 4-((2,4-Dioxothiazolidin-5-yl)methyl)phenyl (E)-3-(4-hydroxy-3-methoxyphenyl)acrylate] | 32.3 | 0.99 ± 0.15 | 32 ± 2 | 155 to 156 |  |  | almost abolish the effect of antimycin A stimulus |
| O=C(/C=C/c1ccc(O)c(O)c1)Nc1ccc(CC2SC(=O)NC2=O)cc1 (centres unmarked) [Compound 4, (E)-3-(3,4-Dihydroxyphenyl)-N-(4-((2,4-dioxothiazolidin-5-yl)methyl)phenyl)acrylamide] | 15.6 | 2.5 ± 1 | 39 ± 5 | 148 to 149 |  | promoted Nrf2 translocation at a lower extent |  |

Now from value to compound, other results behind:

| SI (selectivity index) (recombinant hMAO-B) | Ki (recombinant hMAO-B) [µM] | Ki (recombinant hMAO-A) [µM] | melting point [°C] | decrease in hMAO-B inhibitory potency in comparison with pioglitazone (recombinant hMAO-B) [times] | Structure (SMILES) | Nrf2 nuclear translocation [1] | effect on antimycin A-induced ROS [2] |
| --- | --- | --- | --- | --- | --- | --- | --- |
| 8.0 | 3.14 ± 0.2 | 25 ± 4 |  | 50 | COC(=O)/C=C/C(=O)Oc1ccc(CC2SC(=O)NC2=O)cc1 (centres unmarked) [Compound 1, 4-((2,4-Dioxothiazolidin-5-yl)methyl)phenyl Methyl Fumarate] |  |  |
|  |  |  | 150 to 151 |  | COC(=O)/C=C/C(=O)Oc1ccc(CC2SC(=O)NC2=O)cc1 (centres unmarked) (as salt: fumarate) [Compound 1, 4-((2,4-Dioxothiazolidin-5-yl)methyl)phenyl Methyl Fumarate] |  |  |
